pIC50: −log10 of the molar value.
Assays:
[1] = Inhibition of human BCL-xL overexpressed in mouse FDC-P1 cells assessed as cell viability after 24 hrs by Cell Titer Glo assay
[2] = Inhibition of human BCL-2 overexpressed in mouse FDC-P1 cells assessed as cell viability after 24 hrs by Cell Titer Glo assay

Row | SMILES | pIC50 [1] | pIC50 [2]
1 | O=C(NS(=O)(=O)c1ccc(N[C@H](CCN2CCOCC2)CSc2ccccc2)c(S(=O)(=O)C(F)(F)F)c1)c1ccc(N2CCN(Cc3ccccc3-c3ccc(Cl)cc3)CC2)cc1 | 7.19 | 7.85
2 | O=C(NS(=O)(=O)c1ccc(N[C@H](CCN2CCOCC2)CSc2ccccc2)c(S(=O)(=O)C(F)(F)F)c1)c1cnc(N2CCN(Cc3ccccc3-c3ccc(Cl)cc3)CC2)nc1 | 5.68 | 6.47
3 | O=C(NS(=O)(=O)c1ccc(N[C@H](CCN2CCOCC2)CSc2ccccc2)c(S(=O)(=O)C(F)(F)F)c1)c1ccc(N2CCC([S@@+]([O-])c3ccccc3-c3ccc(Cl)cc3)CC2)cc1 | 5.76 | 6.36
4 | N#CC1(Cc2ccccc2-c2ccc(Cl)cc2)CCN(c2ccc(C(=O)NS(=O)(=O)c3ccc(N[C@H](CCN4CCOCC4)CSc4ccccc4)c(S(=O)(=O)C(F)(F)F)c3)cc2)CC1 | 5.55 | 6.26
5 | CN(C)C(=O)COc1cccc(-c2ccc(Cl)cc2)c1CN1CCN(c2ccc(C(=O)NS(=O)(=O)c3ccc(N[C@H](CCN4CCOCC4)CSc4ccccc4)c(S(=O)(=O)C(F)(F)F)c3)cc2)CC1 | 6.65 | 7.35
6 | CN(C)C(=O)COc1ccc(-c2ccc(Cl)cc2)c(CN2CCN(c3ccc(C(=O)NS(=O)(=O)c4ccc(N[C@H](CCN5CCOCC5)CSc5ccccc5)c(S(=O)(=O)C(F)(F)F)c4)cc3)CC2)c1 | 5.68 | 6.73
7 | CN(C)CCOc1cccc(-c2ccc(Cl)cc2)c1CN1CCN(c2ccc(C(=O)NS(=O)(=O)c3ccc(N[C@H](CCN4CCOCC4)CSc4ccccc4)c(S(=O)(=O)C(F)(F)F)c3)cc2)CC1 | 7.48 | 8.40
8 | CN(C)CCOc1ccc(-c2ccc(Cl)cc2)c(CN2CCN(c3ccc(C(=O)NS(=O)(=O)c4ccc(N[C@H](CCN5CCOCC5)CSc5ccccc5)c(S(=O)(=O)C(F)(F)F)c4)cc3)CC2)c1 | 6.86 | 7.66

Reference: BindingDB's records for doi:10.1016/j.bmcl.2014.05.036 (AstraZeneca, 2014)
